The values below come from patent publication US20250340701A1, “DENDRIMER-DELIVERED ALPHA-PARTICLE RADIOTHERAPY FOR TREATMENT OF GLIOBLASTOMA AND OTHER CANCERS IN THE BRAIN” (priority 2022, published 2025).

For the experiment, the system named is GL261 glioblastoma cells. The experiment is described as follows: Colony survival measurement, GL261 glioblastoma cells. The experiment is classed as cell-based, murine. The method, then:
GL261 glioblastoma cells were incubated with different radioactivity concentrations of ^225Ac-DOTA dendrimer; cells were plated for colony survival measurement.
Cells, plated at 500,000 cells per well, were plated in 6-well plates and were allowed to adhere overnight before being incubated with varying concentrations of radioactivity (4.63, 9.25, 18.5, 37, 74 kBq/mL) at pH 7.4 for a duration of 6 hours. In case of the combination runs with temozolomide (TMZ), the free drug incubation at respective concentrations, was performed simultaneously with the radioactivity for a duration of 6 hours. […] Once cell colonies were observed (approximately 6 weeks for the cancer cells and approximately 3 weeks for the macrophages), the media was removed, dishes were washed with water, and the colonies were fixed and stained using 6% (w/v) glutaraldehyde and 0.05% (w/v) Crystal violet, respectively, following which they were counted using a colony counter pen. The number of colonies counted for each of the treatment groups was then normalized by the number of colonies from the control group to obtain the survival fraction, while accounting for the plating efficiency. The same procedure was used to obtain the survival fractions for free chemotherapeutic treatment, replacing the radioactivity concentrations with free chemotherapeutic concentration while incubating the cells. […]

Regarding `O=C([O-])CN1CCN(CC(=O)[O-])CCN(CC(=O)[O-])CCN(CC(=O)[O-])CC1.[225Ac+3]` [^225Ac-DOTA], for the setting “FIG. 8 left”, the “colony survival fraction of GL261 cells versus resting and activated BV2 macrophages” value was “significantly lower”. Besides, the “GL261 colony survival fraction in the presence of TMZ versus without TMZ” value (TMZ incubated simultaneously for 6 hours, at 2.1-3.7 times less than its IC50, FIG. 10 left, FIG. 12) is recorded as “lower”.
